Laboratory results taken from the supplement of paper PMC13386468.

Assays:
Experiment in all cases: IC50 for competition of protein binding to Kinobeads
Settings in all cases: assay detail: Kinobeads competition in P. falciparum blood-stage lysate
[1] = target: UniProt Q8IIH4
[2] = target: UniProt Q8IDB7
[3] = target: UniProt Q8IJE1
[4] = target: UniProt Q8IIL0
[5] = target: UniProt Q8IHN4
[6] = target: UniProt Q8IJS7
[7] = target: UniProt Q8IJW0
[8] = target: UniProt Q8I3T9
[9] = target: UniProt Q8ILW9
Chain of UniProt Q8ILW9 (Q8ILW9 whole entry): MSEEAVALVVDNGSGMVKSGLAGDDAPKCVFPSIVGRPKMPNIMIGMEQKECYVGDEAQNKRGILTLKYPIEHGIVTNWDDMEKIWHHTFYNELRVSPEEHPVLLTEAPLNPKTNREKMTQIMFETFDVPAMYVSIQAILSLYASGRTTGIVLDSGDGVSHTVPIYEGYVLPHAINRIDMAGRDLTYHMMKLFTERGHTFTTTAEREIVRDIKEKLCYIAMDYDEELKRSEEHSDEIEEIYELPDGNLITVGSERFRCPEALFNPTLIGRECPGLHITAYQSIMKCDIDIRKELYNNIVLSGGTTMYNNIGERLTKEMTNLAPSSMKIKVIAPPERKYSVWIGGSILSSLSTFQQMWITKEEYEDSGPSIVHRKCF

[10] = target: UniProt C6KSV3
[11] = target: UniProt Q8IJQ9
[12] = target: UniProt Q8II72
[13] = target: UniProt C0H4P4
[14] = target: UniProt Q8IJD4
Chain of UniProt Q8IJD4 (Q8IJD4 whole entry): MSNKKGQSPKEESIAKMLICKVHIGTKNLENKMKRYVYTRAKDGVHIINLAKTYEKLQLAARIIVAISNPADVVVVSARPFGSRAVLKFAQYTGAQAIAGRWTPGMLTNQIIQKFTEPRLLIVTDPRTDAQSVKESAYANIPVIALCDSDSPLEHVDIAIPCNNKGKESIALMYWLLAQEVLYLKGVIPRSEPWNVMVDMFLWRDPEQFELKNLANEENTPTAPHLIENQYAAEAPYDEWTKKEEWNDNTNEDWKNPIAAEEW

[15] = target: UniProt Q8IE85
[16] = target: UniProt Q8ILG6
[17] = target: UniProt Q8IHR6
[18] = target: UniProt C6KTA7
[19] = target: UniProt O77361
[20] = target: UniProt O97240
Chain of UniProt O97240 (O97240 whole entry): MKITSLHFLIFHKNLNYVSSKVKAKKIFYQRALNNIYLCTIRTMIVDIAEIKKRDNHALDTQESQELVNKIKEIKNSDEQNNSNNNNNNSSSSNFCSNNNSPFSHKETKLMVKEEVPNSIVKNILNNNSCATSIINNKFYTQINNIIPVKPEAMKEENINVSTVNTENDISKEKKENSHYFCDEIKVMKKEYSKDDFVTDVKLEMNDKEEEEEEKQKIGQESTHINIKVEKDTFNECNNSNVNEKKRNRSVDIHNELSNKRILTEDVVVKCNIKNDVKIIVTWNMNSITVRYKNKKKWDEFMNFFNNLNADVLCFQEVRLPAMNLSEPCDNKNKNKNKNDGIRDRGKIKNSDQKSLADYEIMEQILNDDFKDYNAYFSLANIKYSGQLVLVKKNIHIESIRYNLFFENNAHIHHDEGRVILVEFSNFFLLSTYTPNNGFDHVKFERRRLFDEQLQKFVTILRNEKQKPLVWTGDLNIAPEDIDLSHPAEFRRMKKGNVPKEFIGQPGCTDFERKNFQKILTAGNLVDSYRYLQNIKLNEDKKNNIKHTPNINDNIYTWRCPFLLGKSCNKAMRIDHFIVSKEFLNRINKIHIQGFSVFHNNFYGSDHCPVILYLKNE

[21] = target: UniProt Q8IDX8
[22] = target: UniProt Q8IKM5
[23] = target: UniProt Q8I5F9
[24] = target: UniProt Q8IHT3
[25] = target: UniProt Q8I1R6
[26] = target: UniProt Q8I2J4
Chain of UniProt Q8I2J4 (Q8I2J4 whole entry): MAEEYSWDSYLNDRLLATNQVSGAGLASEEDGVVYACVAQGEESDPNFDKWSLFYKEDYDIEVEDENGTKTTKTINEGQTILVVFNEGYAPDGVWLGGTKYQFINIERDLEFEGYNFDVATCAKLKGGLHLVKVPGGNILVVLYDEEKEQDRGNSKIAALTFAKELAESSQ

[27] = target: UniProt Q7KQL9
Chain of UniProt Q7KQL9 (Q7KQL9 whole entry): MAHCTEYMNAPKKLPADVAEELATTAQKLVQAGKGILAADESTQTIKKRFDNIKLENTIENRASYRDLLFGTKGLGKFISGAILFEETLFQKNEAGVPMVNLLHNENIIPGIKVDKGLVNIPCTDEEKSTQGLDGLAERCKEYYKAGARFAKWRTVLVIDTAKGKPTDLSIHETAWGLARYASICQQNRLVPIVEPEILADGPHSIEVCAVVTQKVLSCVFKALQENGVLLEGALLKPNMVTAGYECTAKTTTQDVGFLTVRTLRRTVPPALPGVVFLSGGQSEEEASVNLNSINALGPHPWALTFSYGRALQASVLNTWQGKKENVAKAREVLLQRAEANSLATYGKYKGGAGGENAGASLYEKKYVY

[28] = target: UniProt Q8IK91
[29] = target: UniProt Q8IAR7
[30] = target: UniProt Q8IJA0
[31] = target: UniProt Q8IJI4
[32] = target: UniProt Q8IAV6
[33] = target: UniProt C0H551
[34] = target: UniProt Q8IIR9
[35] = target: UniProt C0H516
[36] = target: UniProt Q8IAU3
[37] = target: UniProt Q8IJN3
[38] = target: UniProt Q8I3T5
[39] = target: UniProt Q8IIV1
[40] = target: UniProt Q7KQK6
[41] = target: UniProt C0H5J6
[42] = target: UniProt Q8IIQ6
[43] = target: UniProt Q8IIA2
[44] = target: UniProt Q76NM3
[45] = target: UniProt Q8I501
[46] = target: UniProt Q8I1P3
[47] = target: UniProt Q8IDI5
[48] = target: UniProt Q8IEH3
[49] = target: UniProt Q8I0P6
[50] = target: UniProt Q8IC35
[51] = target: A0A146LZZ4

Measured: IC50
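Note: native unpurified kinases from lysate captured on beads bearing immobilized kinase inhibitors, with bead-bound kinases quantified by mass spectrometry across compound doses.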

Chain of UniProt Q8IIL0 (Q8IIL0 whole entry): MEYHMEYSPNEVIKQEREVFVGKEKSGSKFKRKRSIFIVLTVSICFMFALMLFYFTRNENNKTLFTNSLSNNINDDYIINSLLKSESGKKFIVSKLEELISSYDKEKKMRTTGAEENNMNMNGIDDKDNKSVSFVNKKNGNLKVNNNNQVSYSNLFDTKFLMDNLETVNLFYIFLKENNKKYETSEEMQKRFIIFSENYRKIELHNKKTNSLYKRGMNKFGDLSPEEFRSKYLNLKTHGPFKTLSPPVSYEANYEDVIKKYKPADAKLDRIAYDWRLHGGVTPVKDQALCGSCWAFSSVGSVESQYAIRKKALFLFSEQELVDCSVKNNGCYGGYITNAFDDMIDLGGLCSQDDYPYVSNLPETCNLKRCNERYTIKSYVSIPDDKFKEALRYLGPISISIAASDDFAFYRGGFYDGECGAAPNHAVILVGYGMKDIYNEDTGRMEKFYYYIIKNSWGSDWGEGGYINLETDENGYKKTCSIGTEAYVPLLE

O=c1[nH]c2ccc(Cl)cc2c(NC2CN3CCC2CC3)c1-c1nc2ccccc2[nH]1 (stereo unspecified) [CHIR-124]
> 20 µM: all assays above
